Results published in paper PMC7486443, “Generation of Phenothiazine with Potent Anti-TLK1 Activity for Prostate Cancer Therapy” (iScience, 2020).

Experiments:
Assay in all cases: biochemical
Parameters in all cases: DiscoverX KINOMEscan scanMAX competition binding panel, single concentration, percent of control; remaining binding: dose or concentration left out as unconfirmed
Conditions in all cases: KINOMEscan binding, percent of control; read-out: Table S4_SCANMAX REPORT - related to Fig. 1 / Percent Control
[1] = molecular target: T1, ABL1(F317I)-nonphosphorylated (Homo sapiens, UniProt P00519, F317I)
T1 construct: nonphosphorylated

[2] = molecular target: T2, ASK2 (Homo sapiens, UniProt O95382)
T2 construct: gene MAP3K6

[3] = molecular target: BMPR1A (Homo sapiens, UniProt P36894)
[4] = molecular target: CAMK2D (Homo sapiens, UniProt Q13557)
[5] = molecular target: DAPK3 (Homo sapiens, UniProt O43293)
[6] = molecular target: EGFR(L747-E749del, A750P) (Homo sapiens, UniProt P00533, A750P/DEL747-749)
[7] = molecular target: EPHB1 (Homo sapiens, UniProt P54762)
[8] = molecular target: T3, IKK-alpha (Homo sapiens, UniProt O15111)
T3 construct: gene CHUK

[9] = molecular target: T4, MEK2 (Homo sapiens, UniProt P36507)
T4 construct: gene MAP2K2

[10] = molecular target: T5, MLK3 (Homo sapiens, UniProt Q16584)
T5 construct: gene MAP3K11

[11] = molecular target: PIM1 (Homo sapiens, UniProt P11309)
[12] = molecular target: T6, QSK (Homo sapiens, UniProt Q9Y2K2)
T6 construct: gene SIK3

[13] = molecular target: T7, RSK4(Kin.Dom.1-N-terminal) (Homo sapiens, UniProt Q9UK32)
T7 construct: gene RPS6KA6; Kin.Dom.1-N-terminal

[14] = molecular target: TRPM6 (Homo sapiens, UniProt Q9BX84)
[15] = molecular target: TTK (Homo sapiens, UniProt P33981)
[16] = molecular target: TXK (Homo sapiens, UniProt P42681)
[17] = molecular target: T8, VPS34 (Homo sapiens, UniProt Q8NEB9)
T8 construct: gene PIK3C3

[18] = molecular target: T9, YANK2 (Homo sapiens, UniProt Q9NY57)
T9 construct: gene STK32B

T7 sequence (Q9UK32 whole entry): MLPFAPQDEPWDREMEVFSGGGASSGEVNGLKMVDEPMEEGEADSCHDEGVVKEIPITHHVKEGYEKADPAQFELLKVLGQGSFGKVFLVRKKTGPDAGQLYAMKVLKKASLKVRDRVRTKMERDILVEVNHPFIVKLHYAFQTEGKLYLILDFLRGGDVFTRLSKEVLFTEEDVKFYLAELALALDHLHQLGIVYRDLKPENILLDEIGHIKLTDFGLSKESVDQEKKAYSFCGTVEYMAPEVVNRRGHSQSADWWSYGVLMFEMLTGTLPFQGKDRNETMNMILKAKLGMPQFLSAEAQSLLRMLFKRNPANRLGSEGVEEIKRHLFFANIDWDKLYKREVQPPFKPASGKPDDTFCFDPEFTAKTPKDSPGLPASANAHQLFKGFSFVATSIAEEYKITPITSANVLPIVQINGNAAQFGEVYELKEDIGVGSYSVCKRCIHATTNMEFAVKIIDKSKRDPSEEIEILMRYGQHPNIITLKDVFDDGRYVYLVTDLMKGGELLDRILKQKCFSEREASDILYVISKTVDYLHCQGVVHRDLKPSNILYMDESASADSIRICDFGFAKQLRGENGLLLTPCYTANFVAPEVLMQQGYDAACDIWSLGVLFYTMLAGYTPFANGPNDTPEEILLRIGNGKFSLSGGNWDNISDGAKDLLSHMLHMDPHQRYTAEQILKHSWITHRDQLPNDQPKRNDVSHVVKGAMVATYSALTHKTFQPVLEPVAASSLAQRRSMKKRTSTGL
T1 sequence (P00519 whole entry F317I): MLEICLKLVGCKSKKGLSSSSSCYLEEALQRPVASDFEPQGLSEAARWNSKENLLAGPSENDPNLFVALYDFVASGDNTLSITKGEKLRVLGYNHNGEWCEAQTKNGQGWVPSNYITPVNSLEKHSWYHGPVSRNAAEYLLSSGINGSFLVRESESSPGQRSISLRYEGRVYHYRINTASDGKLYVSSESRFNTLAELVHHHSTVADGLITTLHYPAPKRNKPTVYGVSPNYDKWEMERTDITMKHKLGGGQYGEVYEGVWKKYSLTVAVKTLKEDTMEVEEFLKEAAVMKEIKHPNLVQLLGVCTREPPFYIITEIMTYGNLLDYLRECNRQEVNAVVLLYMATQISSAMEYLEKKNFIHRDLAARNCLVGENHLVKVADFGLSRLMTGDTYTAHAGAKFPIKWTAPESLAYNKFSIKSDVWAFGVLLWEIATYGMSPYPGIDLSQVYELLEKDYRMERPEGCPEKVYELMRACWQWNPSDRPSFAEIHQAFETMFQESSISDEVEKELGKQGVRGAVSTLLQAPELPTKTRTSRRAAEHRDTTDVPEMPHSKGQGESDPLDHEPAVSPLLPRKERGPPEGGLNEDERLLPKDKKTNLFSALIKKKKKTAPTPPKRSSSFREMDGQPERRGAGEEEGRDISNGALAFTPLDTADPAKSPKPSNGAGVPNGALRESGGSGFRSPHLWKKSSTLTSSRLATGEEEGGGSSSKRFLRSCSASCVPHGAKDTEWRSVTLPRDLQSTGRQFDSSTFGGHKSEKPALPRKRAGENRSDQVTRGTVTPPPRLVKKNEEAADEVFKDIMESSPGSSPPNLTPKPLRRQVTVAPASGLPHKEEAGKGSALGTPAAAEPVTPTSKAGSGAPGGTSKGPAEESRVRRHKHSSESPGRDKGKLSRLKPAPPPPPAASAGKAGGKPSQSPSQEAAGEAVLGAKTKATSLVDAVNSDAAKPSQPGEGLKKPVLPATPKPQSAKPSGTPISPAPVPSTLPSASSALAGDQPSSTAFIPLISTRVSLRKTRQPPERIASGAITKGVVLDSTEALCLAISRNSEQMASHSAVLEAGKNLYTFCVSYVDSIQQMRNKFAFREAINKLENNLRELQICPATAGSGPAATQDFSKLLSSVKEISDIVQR
T3 sequence (O15111 whole entry): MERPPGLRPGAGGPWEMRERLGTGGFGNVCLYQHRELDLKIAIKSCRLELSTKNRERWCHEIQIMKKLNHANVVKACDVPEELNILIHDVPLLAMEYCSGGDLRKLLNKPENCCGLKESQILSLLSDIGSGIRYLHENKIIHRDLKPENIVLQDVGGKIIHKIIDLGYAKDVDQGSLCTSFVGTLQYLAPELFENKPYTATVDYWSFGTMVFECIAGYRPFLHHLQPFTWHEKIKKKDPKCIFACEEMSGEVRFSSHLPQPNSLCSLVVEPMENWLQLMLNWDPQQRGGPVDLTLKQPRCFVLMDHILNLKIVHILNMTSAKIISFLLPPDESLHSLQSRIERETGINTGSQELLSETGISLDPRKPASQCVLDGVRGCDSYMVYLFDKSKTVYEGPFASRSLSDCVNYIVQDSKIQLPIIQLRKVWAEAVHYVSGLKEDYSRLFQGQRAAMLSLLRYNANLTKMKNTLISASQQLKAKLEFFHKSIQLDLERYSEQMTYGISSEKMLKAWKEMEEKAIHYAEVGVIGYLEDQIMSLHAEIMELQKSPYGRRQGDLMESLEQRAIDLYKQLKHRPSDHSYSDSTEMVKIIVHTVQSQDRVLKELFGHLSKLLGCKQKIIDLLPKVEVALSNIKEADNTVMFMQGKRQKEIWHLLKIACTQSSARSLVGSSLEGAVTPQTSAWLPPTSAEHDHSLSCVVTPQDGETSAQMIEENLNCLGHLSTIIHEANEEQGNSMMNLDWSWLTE
Sequence of TTK (P33981 whole entry): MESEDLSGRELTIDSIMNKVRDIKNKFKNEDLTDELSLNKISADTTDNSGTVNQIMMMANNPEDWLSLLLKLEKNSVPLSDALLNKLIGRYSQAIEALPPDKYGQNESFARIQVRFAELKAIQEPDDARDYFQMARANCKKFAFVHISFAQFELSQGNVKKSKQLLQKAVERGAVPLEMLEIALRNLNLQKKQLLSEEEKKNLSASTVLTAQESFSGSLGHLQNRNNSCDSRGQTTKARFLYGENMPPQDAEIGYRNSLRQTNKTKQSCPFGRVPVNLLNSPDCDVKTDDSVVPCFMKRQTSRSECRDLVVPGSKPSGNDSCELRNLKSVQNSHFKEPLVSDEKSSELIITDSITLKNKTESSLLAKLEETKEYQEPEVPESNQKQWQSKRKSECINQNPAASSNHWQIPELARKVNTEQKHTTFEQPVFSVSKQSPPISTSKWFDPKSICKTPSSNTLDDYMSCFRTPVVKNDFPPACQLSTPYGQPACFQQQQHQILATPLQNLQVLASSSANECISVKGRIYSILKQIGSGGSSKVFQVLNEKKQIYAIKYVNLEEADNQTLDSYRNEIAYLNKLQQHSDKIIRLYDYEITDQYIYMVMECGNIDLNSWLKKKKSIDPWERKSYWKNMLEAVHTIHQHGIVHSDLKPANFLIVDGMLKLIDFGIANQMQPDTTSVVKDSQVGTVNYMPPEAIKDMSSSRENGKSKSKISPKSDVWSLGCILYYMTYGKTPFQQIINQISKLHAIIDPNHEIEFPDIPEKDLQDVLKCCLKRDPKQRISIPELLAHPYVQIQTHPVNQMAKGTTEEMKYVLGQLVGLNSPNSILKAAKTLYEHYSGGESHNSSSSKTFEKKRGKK
Sequence of DAPK3 (O43293 whole entry): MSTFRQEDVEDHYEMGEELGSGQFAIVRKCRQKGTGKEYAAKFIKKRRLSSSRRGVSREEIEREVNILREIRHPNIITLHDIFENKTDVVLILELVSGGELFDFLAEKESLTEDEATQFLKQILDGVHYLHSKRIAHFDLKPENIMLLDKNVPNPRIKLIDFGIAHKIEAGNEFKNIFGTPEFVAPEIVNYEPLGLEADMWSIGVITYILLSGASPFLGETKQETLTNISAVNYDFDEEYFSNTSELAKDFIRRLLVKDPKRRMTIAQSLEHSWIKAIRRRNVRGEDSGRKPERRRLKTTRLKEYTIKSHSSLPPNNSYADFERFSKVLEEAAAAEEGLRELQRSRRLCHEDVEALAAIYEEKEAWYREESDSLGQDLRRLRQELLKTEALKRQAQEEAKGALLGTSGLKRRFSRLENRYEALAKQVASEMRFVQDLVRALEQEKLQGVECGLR
T5 sequence (Q16584 whole entry): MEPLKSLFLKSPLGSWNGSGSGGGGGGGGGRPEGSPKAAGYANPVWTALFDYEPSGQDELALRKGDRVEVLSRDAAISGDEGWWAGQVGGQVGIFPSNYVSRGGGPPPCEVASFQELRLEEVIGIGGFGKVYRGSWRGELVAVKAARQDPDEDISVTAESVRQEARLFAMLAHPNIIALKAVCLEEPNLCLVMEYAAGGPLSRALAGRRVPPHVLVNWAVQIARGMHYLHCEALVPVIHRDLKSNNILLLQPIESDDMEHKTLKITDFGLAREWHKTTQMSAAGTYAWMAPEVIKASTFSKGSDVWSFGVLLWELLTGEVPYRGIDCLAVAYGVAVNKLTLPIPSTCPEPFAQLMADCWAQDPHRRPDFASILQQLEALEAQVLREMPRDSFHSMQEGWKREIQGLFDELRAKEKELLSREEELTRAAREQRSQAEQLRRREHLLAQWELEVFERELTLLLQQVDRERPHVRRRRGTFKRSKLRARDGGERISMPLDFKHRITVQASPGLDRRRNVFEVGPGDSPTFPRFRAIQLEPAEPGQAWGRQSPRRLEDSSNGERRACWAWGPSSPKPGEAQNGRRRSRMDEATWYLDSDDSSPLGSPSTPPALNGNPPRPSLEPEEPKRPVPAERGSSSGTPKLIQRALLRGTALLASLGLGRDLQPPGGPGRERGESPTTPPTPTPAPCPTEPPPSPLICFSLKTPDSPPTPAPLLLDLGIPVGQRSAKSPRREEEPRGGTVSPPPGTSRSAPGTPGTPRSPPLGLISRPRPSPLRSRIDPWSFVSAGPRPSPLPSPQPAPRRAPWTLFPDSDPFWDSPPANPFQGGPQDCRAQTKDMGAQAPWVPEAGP

Structure (SMILES): c1ccc2c(c1)Sc1ccccc1N2CCN1CCOCC1 [J54]
- remaining binding [1]: 92%
- remaining binding [2]: 100%
- remaining binding [3]: 72%
- remaining binding [4]: 100%
- remaining binding [5]: 96%
- remaining binding [6]: 90%
- remaining binding [7]: 100%
- remaining binding [8]: 100%
- remaining binding [9]: 100%
- remaining binding [10]: 100%
- remaining binding [11]: 81%
- remaining binding [12]: 100%
- remaining binding [13]: 100%
- remaining binding [14]: 100%
- remaining binding [15]: 17%
- remaining binding [16]: 99%
- remaining binding [17]: 86%
- remaining binding [18]: 100%
